Tested on: HCT116 colorectal cancer cells
Assay: Cisplatin sensitization assay (96 h cell viability MTS);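 further: compound concentration needed to lower the Cisplatin-alone IC50 by a set fold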
Format: cell-based
Conditions: 96 h MTS, compound plus Cisplatin
In short: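 HCT116 cells were co-treated with compound and cisplatin, each in 2-fold serial dilutions from a 10 μM top final concentration, as a full matrix. After 96 h at 37 °C, 5% CO2, viability was read by MTS following a 1 h incubation with reagent.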

Row | Compound | Cisplatin Sensitization Assay
1 | Nc1nn2cc(F)cnc2c1C(=O)Nc1cncc(F)c1N1CCN(S(=O)(=O)C2CC2)CC1 [I-N-159, 2-amino-N-(4-(4-(cyclopropylsulfonyl)piperazin-1-yl)-5-fluoropyridin-3-yl)-6-fluoropyrazolo[1,5-a]pyrimidine-3-carboxamide] | +++ (Compounds with a Cisplatin sensitization value of <0.02 μM are marked with “+++.”)
2 | CC(C)N1CCCC1C(=O)N1CCN(c2c(F)cncc2NC(=O)c2c(N)nn3cc(F)cnc23)CC1 (centres unmarked) [I-N-205, 2-amino-6-fluoro-N-(5-fluoro-4-(4-(1-isopropylpyrrolidine-2-carbonyl)piperazin-1-yl)pyridin-3-yl)pyrazolo[1,5-a]pyrimidine-3-carboxamide] | ++ (Compounds with a Cisplatin sensitization value >0.02 μM but <0.2 μM are marked with “++.”)
3 | Nc1nn2cc(F)cnc2c1C(=O)Nc1cncc(F)c1N1CCC(C(=O)N2CCNC3CC32)CC1 (centres unmarked) [I-G-62, N-(4-(4-(2,5-diazabicyclo[4.1.0]heptane-2-carbonyl)piperidin-1-yl)-5-fluoropyridin-3-yl)-2-amino-6-fluoropyrazolo[1,5-a]pyrimidine-3-carboxamide] | +++ (Compounds with a Cisplatin sensitization value of <0.02 μM are marked with “+++.”)
4 | Nc1nn2cc(F)cnc2c1C(=O)Nc1cncc(F)c1N1CCC(CN2CCOCC2)CC1 [I-N-149, 2-amino-6-fluoro-N-(5-fluoro-4-(4-(morpholinomethyl)piperidin-1-yl)pyridin-3-yl)pyrazolo[1,5-a]pyrimidine-3-carboxamide] | +++ (Compounds with a Cisplatin sensitization value of <0.02 μM are marked with “+++.”)
5 | Cc1cncnc1-c1ccncc1NC(=O)c1c(N)nn2cc(F)cnc12 [I-C-67, 2-amino-6-fluoro-N-(4-(5-methylpyrimidin-4-yl)pyridin-3-yl)pyrazolo[1,5-a]pyrimidine-3-carboxamide] | ++ (Compounds with a Cisplatin sensitization value >0.02 μM but <0.2 μM are marked with “++.”)
6 | Nc1nn2cc(F)cnc2c1C(=O)Nc1cnccc1N1CCN(S(=O)(=O)C2CCOC2)CC1 (centres unmarked) [I-N-179, 2-amino-6-fluoro-N-(4-(4-((tetrahydrofuran-3-yl)sulfonyl)piperazin-1-yl)pyridin-3-yl)pyrazolo[1,5-a]pyrimidine-3-carboxamide] | +++ (Compounds with a Cisplatin sensitization value of <0.02 μM are marked with “+++.”)
7 | CC(C)Oc1ccncc1NC(=O)c1c(N)nn2cc(CC#N)cnc12 [I-O-35, 2-amino-6-(cyanomethyl)-N-(4-isopropoxypyridin-3-yl)pyrazolo[1,5-a]pyrimidine-3-carboxamide] | +++ (Compounds with a Cisplatin sensitization value of <0.02 μM are marked with “+++.”)
8 | Nc1nn2cc(F)cnc2c1C(=O)Nc1cncc(F)c1N1CCN2C(=O)CCC[C@H]2C1 [I-N-279, (S)-2-amino-6-fluoro-N-(5-fluoro-4-(6-oxohexahydro-1H-pyrido[1,2-a]pyrazin-2(6H)-yl)pyridin-3-yl)pyrazolo[1,5-a]pyrimidine-3-carboxamide] | +++ (Compounds with a Cisplatin sensitization value of <0.02 μM are marked with “+++.”)
9 | Nc1nn2cc(F)cnc2c1C(=O)Nc1cncc2c1CCNC2 [I-C-7, 2-amino-6-fluoro-N-(5,6,7,8-tetrahydro-2,7-naphthyridin-4-yl)pyrazolo[1,5-a]pyrimidine-3-carboxamide] | ++ (Compounds with a Cisplatin sensitization value >0.02 μM but <0.2 μM are marked with “++.”)
10 | Cc1cncc(NC(=O)c2c(N)nn3cc(F)cnc23)c1N1CCC(C(=O)N2CCNCC2)CC1 [I-G-56, 2-amino-6-fluoro-N-(5-methyl-4-(4-(piperazine-1-carbonyl)piperidin-1-yl)pyridin-3-yl)pyrazolo[1,5-a]pyrimidine-3-carboxamide] | +++ (Compounds with a Cisplatin sensitization value of <0.02 μM are marked with “+++.”)
11 | Nc1nn2cc(F)cnc2c1C(=O)Nc1cnccc1N1CCN(C2COC2)C2CC21 (centres unmarked) [I-N-31, 2-amino-6-fluoro-N-(4-(5-(oxetan-3-yl)-2,5-diazabicyclo[4.1.0]heptan-2-yl)pyridin-3-yl)pyrazolo[1,5-a]pyrimidine-3-carboxamide] | + (Compounds with a Cisplatin sensitization value >0.2 μM but <5 μM are marked with “+.”)
12 | Nc1nn2cc(F)cnc2c1C(=O)Nc1cnccc1O[C@H]1Cc2nccn2C1 [I-O-16, (S)-2-amino-N-(4-((6,7-dihydro-5H-pyrrolo[1,2-a]imidazol-6-yl)oxy)pyridin-3-yl)-6-fluoropyrazolo[1,5-a]pyrimidine-3-carboxamide] | +++ (Compounds with a Cisplatin sensitization value of <0.02 μM are marked with “+++.”)
13 | CN(C)[C@@H]1CCN(C(=O)C2CCN(c3c(F)cncc3NC(=O)c3c(N)nn4cc(F)cnc34)CC2)C1 [I-G-11, (R)-2-amino-N-(4-(4-(3-(dimethylamino)pyrrolidine-1-carbonyl)piperidin-1-yl)-5-fluoropyridin-3-yl)-6-fluoropyrazolo[1,5-a]pyrimidine-3-carboxamide] | +++ (Compounds with a Cisplatin sensitization value of <0.02 μM are marked with “+++.”)
14 | Nc1nn2cc(Cl)cnc2c1C(=O)Nc1cnccc1N1CCN(C2COC2)CC1 [I-N-58, 2-amino-6-chloro-N-(4-(4-(oxetan-3-yl)piperazin-1-yl)pyridin-3-yl)pyrazolo[1,5-a]pyrimidine-3-carboxamide] | ++ (Compounds with a Cisplatin sensitization value >0.02 μM but <0.2 μM are marked with “++.”)
15 | CN(C)CCc1cnn(-c2ccncc2NC(=O)c2c(N)nn3cc(F)cnc23)c1 [I-N-9, 2-amino-N-(4-(4-(2-(dimethylamino)ethyl)-1H-pyrazol-1-yl)pyridin-3-yl)-6-fluoropyrazolo[1,5-a]pyrimidine-3-carboxamide] | + (Compounds with a Cisplatin sensitization value >0.2 μM but <5 μM are marked with “+.”)
16 | Nc1nn2cc(F)cnc2c1C(=O)Nc1cnccc1-c1ccccc1 [I-C-5, 2-amino-6-fluoro-N-(4-phenylpyridin-3-yl)pyrazolo[1,5-a]pyrimidine-3-carboxamide] | +++ (Compounds with a Cisplatin sensitization value of <0.02 μM are marked with “+++.”)
17 | COC(=O)C1CCN(c2ccncc2NC(=O)c2c(N)nn3cc(Cl)cnc23)CC1 [I-N-74, methyl-1-(3-(2-amino-6-chloropyrazolo[1,5-a]pyrimidine-3-carboxamido)pyridin-4-yl)piperidine-4-carboxylate] | +++ (Compounds with a Cisplatin sensitization value of <0.02 μM are marked with “+++.”)
18 | Nc1nn2cc(Cl)cnc2c1C(=O)Nc1cnccc1O[C@H]1C[C@@]2(CCN2)C1 [I-O-79, N-(4-((4r,6s)-1-azaspiro[3.3]heptan-6-yloxy)pyridin-3-yl)-2-amino-6-chloropyrazolo[1,5-a]pyrimidine-3-carboxamide] | ++ (Compounds with a Cisplatin sensitization value >0.02 μM but <0.2 μM are marked with “++.”)
19 | CN(C)CC1(O)CCN(c2ccncc2NC(=O)c2c(N)nn3cc(Cl)cnc23)CC1 [I-N-36, 2-amino-6-chloro-N-(4-(4-((dimethylamino)methyl)-4-hydroxypiperidin-1-yl)pyridin-3-yl)pyrazolo[1,5-a]pyrimidine-3-carboxamide] | ++ (Compounds with a Cisplatin sensitization value >0.02 μM but <0.2 μM are marked with “++.”)
20 | Nc1nn2cc(F)cnc2c1C(=O)Nc1cnccc1-c1ccc(S(=O)(=O)N2CCC2)cc1 [I-C-64, 2-amino-N-(4-(4-(azetidin-1-ylsulfonyl)phenyl)pyridin-3-yl)-6-fluoropyrazolo[1,5-a]pyrimidine-3-carboxamide] | +++ (Compounds with a Cisplatin sensitization value of <0.02 μM are marked with “+++.”)
21 | COc1ccncc1NC(=O)c1c(N)nn2cc(F)cnc12 [I-O-4, 2-amino-6-fluoro-N-(4-methoxypyridin-3-yl)pyrazolo[1,5-a]pyrimidine-3-carboxamide] | ++ (Compounds with a Cisplatin sensitization value >0.02 μM but <0.2 μM are marked with “++.”)
22 | Cc1cncc(NC(=O)c2c(N)nn3cc(F)cnc23)c1N1CCC(C(=O)N2CCN(C)CC2)CC1 [I-G-55, 2-amino-6-fluoro-N-(5-methyl-4-(4-(4-methylpiperazine-1-carbonyl)piperidin-1-yl)pyridin-3-yl)pyrazolo[1,5-a]pyrimidine-3-carboxamide] | +++ (Compounds with a Cisplatin sensitization value of <0.02 μM are marked with “+++.”)
23 | COC(=O)N1CCN(c2c(F)cncc2NC(=O)c2c(N)nn3cc(F)cnc23)CC1 [I-N-261, methyl-4-(3-(2-amino-6-fluoropyrazolo[1,5-a]pyrimidine-3-carboxamido)-5-fluoropyridin-4-yl)piperazine-1-carboxylate] | +++ (Compounds with a Cisplatin sensitization value of <0.02 μM are marked with “+++.”)
24 | Nc1nn2cc(F)cnc2c1C(=O)Nc1cncc(F)c1N1CCC(OCCN2CCCC2)CC1 [I-N-167, 2-amino-6-fluoro-N-(5-fluoro-4-(4-(2-(pyrrolidin-1-yl)ethoxy)piperidin-1-yl)pyridin-3-yl)pyrazolo[1,5-a]pyrimidine-3-carboxamide] | +++ (Compounds with a Cisplatin sensitization value of <0.02 μM are marked with “+++.”)
25 | Nc1nn2cc(F)cnc2c1C(=O)Nc1cncc(F)c1N1CCC(C(=O)N2CC3CCC(C2)N3)CC1 [I-G-44, N-(4-(4-(3,8-diazabicyclo[3.2.1]octane-3-carbonyl)piperidin-1-yl)-5-fluoropyridin-3-yl)-2-amino-6-fluoropyrazolo[1,5-a]pyrimidine-3-carboxamide] | +++ (Compounds with a Cisplatin sensitization value of <0.02 μM are marked with “+++.”)
26 | CN1CCOC2(CCN(c3ccncc3NC(=O)c3c(N)nn4cc(F)cnc34)CC2)C1 [I-N-183, 2-amino-6-fluoro-N-(4-(4-methyl-1-oxa-4,9-diazaspiro[5.5]undecan-9-yl)pyridin-3-yl)pyrazolo[1,5-a]pyrimidine-3-carboxamide] | +++ (Compounds with a Cisplatin sensitization value of <0.02 μM are marked with “+++.”)
